Like-named read-outs stand apart in the source and are kept apart here.
Experiments:
[1] = system: primary culture of human coronary artery smooth muscle cells; test: Affymetrix U133Av2 microarray gene expression; type: cell-based; settings: 100 nM, 30 hr, ratio to no-drug control; for FC angiopoietin 1 (NM_001146) / FC coagulation factor II (thrombin) receptor-like 1 (NM_005242) / FC endothelin receptor type B (NM_000115) / FC fibroblast growth factor 9 (glia-activating factor) (NM_002010) / FC fibroblast growth factor receptor 3 (achondroplasia, thanatophoric dwarfism) (NM_000142) / FC insulin-like growth factor 1 (somatomedin C) (NM_000618) / FC matrix metalloproteinase 14 (membrane-inserted) (NM_004995) / FC natriuretic peptide precursor B (NM_002521) / FC oxytocin receptor (NM_000916) / FC phospholamban (NM_002667) / FC prostaglandin-endoperoxide synthase 1 (prostaglandin G/H synthase and cyclooxygenase) (NM_000962) / FC thrombomodulin (NM_000361) / FC thrombospondin 1 (AI812030) / FC transforming growth factor, beta 2 (NM_003238) / FC transforming growth factor, beta 3 (J03241): Table 4
Description: Microarray: […] While the yield of total RNA was low ([…] total per sample), the RNAs were intact as judged by Agilent 2100 analysis. One μg of total RNA from each sample was used to prepare biotin-labeled cRNA target using standard Affymetrix protocols. Prepared cRNA targets were of good quality and quantity. The Affymetrix Human chip U133Av2 was used (22,000+ probe sets) and 10 μg cRNA target was applied to each array. […] Scanned images were loaded into the Rosetta Resolver 4.0 database and processed using the Resolver Affymetrix error model. Within Resolver the drug treated sample replicates (n=3) were informatically combined and ratios constructed relative to the combined control (no addition of drug) samples. The Resolver Affymetrix error model was used to develop each ratio and calculate a p-value. The Resolver error model is robust and includes reporter level, background and error values in the calculation of statistical significance. A combination of hierarchical clustering, gene ontology analysis and pathway mapping were used to assess the function of the regulated genes.

[2] = system: TGFβ3; test: Real-time RT-PCR, TGFβ3 mRNA expression in smooth muscle cells; type: cell-based; settings: Homo sapiens, normalized to GAPDH, FIG. 7, read-out: EC50 on TGFβ3 mRNA expression (up-regulation)
Description: (§1) Primers and probes for Real-time Reverse Transcription-PCR: For quantitative PCR (qPCR), TaqMan™ probes that were 5′ labeled with the reporter 6-carboxyfluorescein (FAM) and 3′ labeled with the quencher tetramethylrhodamine (TAMRA) were used. The primer and probe sets were obtained from the Assay-on-Demand collection (Applied Biosytsems).
(§2) Real-time Reverse Transcription-PCR: PCR was performed with a 7900HT sequence detector (Applied Biosytsems). Each sample has a final volume of 25 μl containing 50 ng of cDNA, […] each of the forward and reverse PCR primers and […] of the TaqMan™ probe. Temperature conditions consisted of a step of 5 minutes at 95° C., followed by 40 cycles of 60° C. for 1 minute and 95° C. for 15 seconds. Data was collected during each extension phase of the PCR reaction and analyzed with the SDS software package (Applied Biosystems). Threshold cycles were determined for each gene. The expression level of target gene of interest was given as relative expression normalized against glyceraldehyde-3-phosphate dehydrogenase (GAPDH).

[3] = system: WT1; test: Real-time RT-PCR, WT1 mRNA expression in smooth muscle cells; type: cell-based; settings: Homo sapiens, normalized to GAPDH, FIG. 7, read-out: EC50 on WT1 mRNA expression (up-regulation)
Description: as §1, §2

[4] = system: human coronary artery smooth muscle cells; test: 3H-thymidine incorporation (DNA synthesis / cell proliferation); type: cell-based
Description: One day after plating, the cells were treated with test agents for 24 hours and then labeled with 0.3 μCi/well of ^3H-thymidine for another 48 hours. Each well was washed with 0.3 ml/well of PBS, incubated with 0.2 ml/well of ice-cold 10% trichloroacetic acid (hereinafter “TCA”) for 30 minutes at 4° C., and then followed by another wash of 0.2 ml/well of TCA. Samples were dissolved in MICROSCINT™ 20 before counting. Data shown are mean ± the standard deviation (n=4).
Thymidine incorporation: Cells were plated at 1×10^6 cells/ml, 200 μl/well into 96-well plates (Costar). One day after plating, the cells were treated with test agents for 24 hr and then labeled with 0.3 μCi/well of ^3H-thymidine for another 48 hr. Each well was washed with 0.3 ml/well of PBS, incubated with 0.2 ml/well of ice-cold 10% trichloroacetic acid (TCA) for 30 min at 4° C., and then followed by another wash of 0.2 ml/well of TCA. Samples were dissolved in MICROSCINT™ 20 (Packard) before counting.

[5] = system: IGF1; test: Real-time RT-PCR, IGF1 mRNA expression in smooth muscle cells; type: cell-based; settings: Homo sapiens, normalized to GAPDH, FIG. 7, read-out: EC50 on IGF1 mRNA expression (up-regulation)
Description: as §1, §2

[6] = system: VDR; settings: 0.1 μM, CASMC in growth medium, not all cells responded, FIG. 2
[7] = system: plasminogen activator inhibitor type-1 (PAI-1); test: SDS-PAGE and Western blot of PAI-1 in CASMC; type: cell-based, human; settings: Western blot, FIG. 6
Description: SDS-PAGE and Western Blot Analysis: Cells (1×10^6 cells per sample) pretreated with or without test agents were solubilized in 50 μl of SDS-PAGE sample buffer (Sigma, St. Louis, Mo.), and the protein content in each sample was determined by the Pierce (Rockford, Ill.) BCA protein assay. Samples were resolved by SDS-PAGE using a 4-12% NuPAGE gel (Invitrogen, Carlsbad, Calif.), and proteins were electrophoretically transferred to polyvinylidene fluoride (hereinafter “PVDF”) membrane for Western blotting. The membrane was blotted for 1 hour at 25° C. with 5% nonfat dry milk in PBS-T and then incubated with a mouse anti-PAI-1 monoclonal antibody (1000-fold dilution, Santa Cruz Biotechnology, Santa Cruz, Calif.) in PBS-T overnight at 4° C. The membrane was washed with PBS-T and incubated with a horseradish peroxidase-labeled anti-mouse antibody for 1 hour at 25° C. The membrane was then incubated with detection reagent (SuperSignal WestPico, Pierce, Rockford, Ill.). Specific bands were visualized by exposing the paper to Kodak BioMax films.

SMILES: C=C1/C(=C\C=C2/CCC[C@]3(C)[C@@H]([C@H](C)CCCC(C)(C)O)CC[C@@H]23)C[C@@H](O)C[C@@H]1O [calcitriol, 1-alpha-25-dihydroxyvitamin D3]
- FC CD1D antigen, d polypeptide (205789_at) [1]: 6.95
- FC CDK5 regulatory subunit associated protein 2 (220935_s_at) [1]: 2.67
- FC Kruppel-like factor 4 (gut) (220266_s_at) [1]: 2.67
- FC PMS2 postmeiotic segregation increased 2 (S. cerevisiae) (209805_at) [1]: 2.85
- FC Wilms tumor 1 (206067_s_at) [1]: 3.55
- FC Wilms tumor 1 (216953_s_at) [1]: 6.63
- FC Wilms tumor associated protein (206954_at) [1]: 2.96
- FC basic helix-loop-helix domain containing, class B, 3 (221530_s_at) [1]: −2.00
- FC cholecystokinin B receptor (210381_s_at) [1]: −1.65
- FC cyclin F (204827_s_at) [1]: −1.09
- FC cysteine and glycine-rich protein 2 (207030_s_at) [1]: −2.13
- FC cysteine and glycine-rich protein 2 (211126_s_at) [1]: −2.21
- FC ecotropic viral integration site 2A (204774_at) [1]: −1.77
- FC fibroblast growth factor 9 (glia-activating factor) (206404_at) [1]: 2.07
- FC insulin-like growth factor 1 (somatomedin C) (209540_at) [1]: 4.39
- FC insulin-like growth factor 1 (somatomedin C) (209541_at) [1]: 2.78
- FC insulin-like growth factor 1 (somatomedin C) (209542_x_at) [1]: 3.23
- FC insulin-like growth factor 1 (somatomedin C) (211577_s_at) [1]: 3.47
- FC mitogen-activated protein kinase 13 (210058_at) [1]: 2.27
- FC mitogen-activated protein kinase 13 (210059_s_at) [1]: 3.27
- FC myosin heavy polypeptide 10, non-muscle (213067_at) [1]: −2.03
- FC putative lymphocyte G0/G1 switch gene (213524_s_at) [1]: 3.69
- FC retinoblastoma-like 2 (p130) (212332_at) [1]: 1.10
- FC suppressor of cytokine signaling 2 (203372_s_at) [1]: −2.29
- FC suppressor of cytokine signaling 2 (203373_at) [1]: −2.50
- FC tetraspan 1 (209114_at) [1]: −4.34
- FC transforming growth factor, beta 2 (209909_s_at) [1]: 2.91
- FC transforming growth factor, beta 2 (220407_s_at) [1]: 2.97
- FC transforming growth factor, beta 3 (209747_at) [1]: 2.83
- FC angiopoietin 1 (NM_001146) [1]: 2.0
- FC coagulation factor II (thrombin) receptor-like 1 (NM_005242) [1]: −1.7
- FC endothelin receptor type B (NM_000115) [1]: 3.4
- FC fibroblast growth factor 9 (glia-activating factor) (NM_002010) [1]: 2.1
- FC fibroblast growth factor receptor 3 (achondroplasia, thanatophoric dwarfism) (NM_000142) [1]: 1.9
- FC insulin-like growth factor 1 (somatomedin C) (NM_000618) [1]: 2.8
- FC matrix metalloproteinase 14 (membrane-inserted) (NM_004995) [1]: 2.1
- FC natriuretic peptide precursor B (NM_002521) [1]: −2.0
- FC oxytocin receptor (NM_000916) [1]: −3.0
- FC phospholamban (NM_002667) [1]: −2.6
- FC prostaglandin-endoperoxide synthase 1 (prostaglandin G/H synthase and cyclooxygenase) (NM_000962) [1]: 2.2
- FC thrombomodulin (NM_000361) [1]: 3.3
- FC thrombospondin 1 (AI812030) [1]: −3.2
- FC transforming growth factor, beta 2 (NM_003238) [1]: 2.9
- FC transforming growth factor, beta 3 (J03241) [1]: 2.9

SMILES: C[C@H](/C=C/[C@H](C)C(C)(C)O)[C@H]1CC[C@H]2/C(=C/C=C3C[C@@H](O)C[C@H](O)C3)CCC[C@]12C [paricalcitol, 19-nor-1α,3β,25-trihydroxy-9,10-secoergosta-5(Z); 7(E),22(E)-triene]
- EC50 [2]: 10.6 nM
- EC50 [3]: 29.7 nM
- EC50 ([4]; Homo sapiens, Example 1, CASMC, FIG. 4, read-out: EC50 inhibiting DNA synthesis ([3H]-thymidine incorporation)): 0.044 ± 0.004 nM
- EC50 ([4]; Homo sapiens, Example 2, FIG. 8, read-out: EC50 inhibition of 3H-thymidine incorporation): 0.2 nM
- inhibition at 0.01 µM ([4]; Homo sapiens, Example 2, at 10 nM, compared to cells in growth medium): 46%
- EC50 [5]: 0.2 nM
- VDR translocation (confocal microscopy) [6]: VDR translocated into the nucleus
- potency in reducing PAI-1 level / inhibiting PAI-1 expression [7]: as potent as calcitriol
- FC CD1D antigen, d polypeptide (205789_at) [1]: 5.38
- FC CDK5 regulatory subunit associated protein 2 (220935_s_at) [1]: 2.91
- FC Kruppel-like factor 4 (gut) (220266_s_at) [1]: 2.37
- FC PMS2 postmeiotic segregation increased 2 (S. cerevisiae) (209805_at) [1]: 2.18
- FC Wilms tumor 1 (206067_s_at) [1]: 3.32
- FC Wilms tumor 1 (216953_s_at) [1]: 4.64
- FC Wilms tumor associated protein (206954_at) [1]: 2.72
- FC basic helix-loop-helix domain containing, class B, 3 (221530_s_at) [1]: −1.80
- FC cholecystokinin B receptor (210381_s_at) [1]: −3.04
- FC cyclin F (204827_s_at) [1]: −2.75
- FC cysteine and glycine-rich protein 2 (207030_s_at) [1]: −2.18
- FC cysteine and glycine-rich protein 2 (211126_s_at) [1]: −2.33
- FC ecotropic viral integration site 2A (204774_at) [1]: −2.49
- FC fibroblast growth factor 9 (glia-activating factor) (206404_at) [1]: 1.88
- FC insulin-like growth factor 1 (somatomedin C) (209540_at) [1]: 4.89
- FC insulin-like growth factor 1 (somatomedin C) (209541_at) [1]: 2.63
- FC insulin-like growth factor 1 (somatomedin C) (209542_x_at) [1]: 3.24
- FC insulin-like growth factor 1 (somatomedin C) (211577_s_at) [1]: 3.43
- FC mitogen-activated protein kinase 13 (210058_at) [1]: 2.40
- FC mitogen-activated protein kinase 13 (210059_s_at) [1]: 3.26
- FC myosin heavy polypeptide 10, non-muscle (213067_at) [1]: −1.80
- FC putative lymphocyte G0/G1 switch gene (213524_s_at) [1]: 3.46
- FC retinoblastoma-like 2 (p130) (212332_at) [1]: −1.37
- FC suppressor of cytokine signaling 2 (203372_s_at) [1]: −2.70
- FC suppressor of cytokine signaling 2 (203373_at) [1]: −2.39
- FC tetraspan 1 (209114_at) [1]: −1.79
- FC transforming growth factor, beta 2 (209909_s_at) [1]: 2.48
- FC transforming growth factor, beta 2 (220407_s_at) [1]: 1.88
- FC transforming growth factor, beta 3 (209747_at) [1]: 2.80
- FC angiopoietin 1 (NM_001146) [1]: 1.7
- FC coagulation factor II (thrombin) receptor-like 1 (NM_005242) [1]: −2.1
- FC endothelin receptor type B (NM_000115) [1]: 2.3
- FC fibroblast growth factor 9 (glia-activating factor) (NM_002010) [1]: 1.9
- FC fibroblast growth factor receptor 3 (achondroplasia, thanatophoric dwarfism) (NM_000142) [1]: 3.4
- FC insulin-like growth factor 1 (somatomedin C) (NM_000618) [1]: 2.5
- FC matrix metalloproteinase 14 (membrane-inserted) (NM_004995) [1]: 1.1
- FC natriuretic peptide precursor B (NM_002521) [1]: −2.5
- FC oxytocin receptor (NM_000916) [1]: −2.6
- FC phospholamban (NM_002667) [1]: −2.4
- FC prostaglandin-endoperoxide synthase 1 (prostaglandin G/H synthase and cyclooxygenase) (NM_000962) [1]: 2.0
- FC thrombomodulin (NM_000361) [1]: 3.0
- FC thrombospondin 1 (AI812030) [1]: −2.7
- FC transforming growth factor, beta 2 (NM_003238) [1]: 2.5
- FC transforming growth factor, beta 3 (J03241) [1]: 2.9

SMILES: CC(=O)O[C@H]1C(=O)[C@@]2(C)[C@H]([C@H](OC(=O)c3ccccc3)[C@]3(O)C[C@H](OC(=O)[C@H](O)[C@@H](NC(=O)c4ccccc4)c4ccccc4)C(C)=C1C3(C)C)[C@]1(OC(C)=O)CO[C@@H]1C[C@@H]2O [taxol]
- effect on DNA synthesis ([3H]-thymidine incorporation) ([4]; Example 1, even at 0.01 nM, FIG. 3): severely impacted DNA synthesis

From patent US20070134286A1, “Methods for reducing intimal hyperplasia, smooth muscle cell proliferation and restenosis in mammals” (priority 2004, published 2007)
